Experimental data published in patent publication US20260132123A1, “ABAD INHIBITOR COMPOUNDS” (UNIVERSITY COURT OF THE UNIVERSITY OF ST ANDREWS, priority 2021, published 2026).
pEC50: −log10 of the molar value.

Target: T1, 17β-HSD10 (Homo sapiens, UniProt Q99714)
T1 construct: Histev (histidine tag with TEV site) (N, cleaved yes); made in house; host or cells: E. coli BL21-CodonPlus
T1 sequence (Q99714 1-261): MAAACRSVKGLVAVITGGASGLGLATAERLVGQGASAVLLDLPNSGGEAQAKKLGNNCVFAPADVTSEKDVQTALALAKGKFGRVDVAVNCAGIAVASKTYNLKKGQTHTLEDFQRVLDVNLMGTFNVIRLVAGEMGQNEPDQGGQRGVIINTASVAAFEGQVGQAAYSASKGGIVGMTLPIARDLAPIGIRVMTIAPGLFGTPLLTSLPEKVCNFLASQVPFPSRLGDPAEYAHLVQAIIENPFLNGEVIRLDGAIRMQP
Experiment: 17β-HSD10 (ABAD) enzyme inhibition assay, NADH oxidation read at 340 nm (primary screen and dose response)
Assay type: biochemical
Settings: for pEC50 / Max. Effect (%) / Hill Slope / Max. Fit / Min. Fit: recombinant 17βHSD10 enzyme assay; for Hill Slope / Max. Fit / Min. Fit: curve fit; for ABAD plC50: primary screening, resynthesized HTS hit compounds
Protocol: Cell pellets of E. coli BL21-CodonPlus cells containing Histev-17β-HSD10 protein were re-suspended for 30 min, 4° C., in lysis buffer (20 mM NaH2PO4, 30 mM imidazole, 500 mM NaCl, 10% (v/v) glycerol, pH 7.5) with the addition of complete ethylenediaminetetraacetic acid (EDTA)-free protease inhibitor tablets (Roche), lysozyme (1 mg/mL), deoxyribonuclease (DNase) (20 μg/mL) and Triton X-100 (0.1% (v/v)). Cells were lysed by passage through a cell disruptor at 30 kPSI (Constant Systems Ltd) and the lysate was cleared by centrifugation (Sorvall Evolution RC, rotor S5-34 55-34 angle, 20500 rpm, 30 min, 4° C.). Cleared lysate was filtered (0.45 μm membrane; Whatman) then applied to a Ni-nitrilotriacetic acid (NTA) (GE Healthcare) column pre-washed with lysis buffer and protein eluted with 300 mM imidazole buffer (20 mM NaH2PO4, 300 mM imidazole, 500 mM NaCl, 10% (v/v) glycerol, pH 7.5). […] Protein digestion and dialysis was carried out at 4° C. for 16 h.
Complete digestion was firstly checked by sodium dodecyl sulfate-polyacrylamide gel electrophoresis (SDS-PAGE), then fully digested protein was passed over a second Ni-column and the flow-through, containing 17β-HSD10 protein, was concentrated using a Vivaspin column (10 kDa MWCO, GE Healthcare) to ˜7 mL before final purification using gel filtration to remove imidazole (Hi-Load 16/60 Superdex 75 prep grade column, GE Healthcare, flow rate 1.5 mL/min). Protein was eluted in gel filtration buffer (10 mM trisaminomethane (Tris-HCl), 150 mM NaCl, 10% glycerol, pH 7.5) and concentrated (Vivaspin column (10 kDa molecular weight cut off (MWCO), GE Healthcare)) to 10 mg/mL. Aliquots (10 μL) were taken and flash frozen in liquid nitrogen before final storage at −80° C.
The assay buffer used contains: 10 mM Tris. HCl (pH 7.4), 150 mM NaCl, 1 mM DTT, 0.005% Tween (polysorbate 20) and 0.01% bovine serum albumin (BSA). As indicated for some experiments the assay buffer was supplemented with 100 units/ml bovine liver catalase. All experiments were conducted in clear bottom 384-well or 1536-well low volume microplates (Corning) with a final assay volume of 20 μL and the reaction progress was monitored by oxidation of NADH as determined by reduction in absorbance at 340 nm read on the EnVision plate reader (PerkinElmer).
For primary screening an endpoint assay format was adopted in which an Echo acoustic liquid dispenser (Labcyte) was used to transfer 20 nL of either reference standard, dimethylsulfoxide (DMSO) control ([…] final assay concentration (FAC)) or test compounds (10 μM FAC) to the assay plate. 10 μL of 17β-HSD10 enzyme in assay buffer (2.5 nM, FAC) was then added to the plates using the Preddator liquid handling robot (Redd and Whyte) and plates were incubated at room temperature for 15 minutes. 10 μL of substrate mixture (100 μM acetoacetyl-CoA and 100 μM NADH, FAC) was added with the Preddator. To start the reaction and the plates were left to incubate for 35 minutes at room temperature before the absorbance at 340 nm was read on the EnVision plate reader (PerkinElmer). For kinetic assay format and dose response follow up experiments the same protocol was adopted but the absorbance at 340 nm was monitored constantly for 45 minutes from immediately after the reaction was started.

| SMILES | pEC50 | Max. Effect (%) | Hill Slope | Max. Fit | Min. Fit | ABAD plC50 | 17β-HSD10 / ABAD activity in words (SAR discussion) |
| --- | --- | --- | --- | --- | --- | --- | --- |
| Cc1ccsc1C(=O)N1CCC[C@H]1c1ccccc1-c1ccccc1Cl (single isomer, unassigned) [ESC1002767] | 6.81 | 96% | 0.98 | 96 | −2 |  |  |
| Cc1ccsc1C(=O)N1CCC[C@H]1c1ccccc1-c1cccc(Cl)c1 (single isomer, unassigned) [ESC1002768] | < 4.70 | 12% |  |  |  |  |  |
| Cc1ccsc1C(=O)N1CCC[C@H]1c1ccccc1-c1cccc(C(F)(F)F)c1 (single isomer, unassigned) [ESC1002789] | < 4.70 |  |  |  |  |  |  |
| Cc1ccsc1C(=O)N1CCC[C@H]1c1ccccc1-c1cccc(C(F)(F)F)c1 (single isomer, unassigned) [ESC1002790] | 6.18 |  |  |  |  |  |  |
| O=C(c1[nH]ncc1Cl)N1CCC[C@H]1c1ccccc1-c1cccc(O)c1 (single isomer, unassigned) [ESC1002798] | < 4.70 | 18% |  |  |  |  |  |
| O=C(c1sccc1Cl)N1CCC[C@H]1c1ccccc1-c1cc(O)cc(F)c1 (single isomer, unassigned) [ESC1002800] | < 4.70 | 10% |  |  |  |  |  |
| O=C(c1sccc1Cl)N1CCC[C@H]1c1ccccc1-c1cc(O)cc(F)c1 (single isomer, unassigned) [ESC1002801] | 7.29 | 100% | 1.2 | 96 | −1 |  |  |
| O=C(c1sccc1Cl)N1CCC[C@H]1c1ccccc1-c1ccc(F)c(O)c1 (single isomer, unassigned) [ESC1002838] | 7.29 | 99% | 1.2 | 97 | 0 |  |  |
| O=C(c1sccc1Cl)N1CCC[C@H]1c1ccccc1-c1ccc(F)c(O)c1 (single isomer, unassigned) [ESC1002839] | 5.38 | 85% | 1.1 | 96 | −4 |  |  |
| O=C(c1sccc1Cl)N1CCC[C@H]1c1ccccc1-c1cccc(O)c1F (single isomer, unassigned) [ESC1002840] | 6.77 | 98% | 1.1 | 97 | −4 |  |  |
| O=C(c1sccc1Cl)N1CCC[C@H]1c1ccccc1-c1cccc(O)c1F (single isomer, unassigned) [ESC1002841] | < 4.70 | 27% |  |  |  |  |  |
| O=C(c1sccc1Cl)N1CCC[C@H]1c1ccccc1-c1cc(O)ccc1F (single isomer, unassigned) [ESC1002843] | 4.97 | 70% | 1.1 | 100 | −1 |  |  |
| CCCn1c(C(N)=O)cc2cc(-c3cn[nH]c3)ccc21 [ESC1002019] | 5.40 | 85% | 1.3 | 93 | 2 |  |  |
| COc1ccc(-c2ccc(-c3cn[nH]c3)s2)c(OC)c1OC [ESC1002024, 4-[5-(2,3,4-trimethoxyphenyl)-2-thienyl]-1H-pyrazole] | 5.40 | 89% | 1.2 | 101 | 2 |  |  |
| CC(C)CN(CC(C)C)c1cccc(N(C)Cc2cnc[nH]2)c1 [ESC1002025] | < 4.70 | 15% |  |  |  |  |  |
| Cc1ccc(C(=O)N(CC(C)C)c2cccc(N(C)Cc3cnc[nH]3)c2)cc1 [ESC1002032, N-[3-[1H-imidazol-5-ylmethyl(methyl)amino]phenyl]-N-isobutyl-4-methyl-benzamide] | 6.60 | 99% | 0.9 | 99 | 0 | 6.6 |  |
| CC(C)CN(C(=O)c1ccncc1)c1cccc(N(C)Cc2cnc[nH]2)c1 [ESC1002034, N-[3-[1H-imidazol-5-ylmethyl(methyl)amino]phenyl]-N-isobutyl-pyridine-4-carboxamide] | 5.80 | 92% | 0.8 | 106 | −3 | 5.8 |  |
| COc1cccc(C(=O)N(CC(C)C)c2cccc(N(C)Cc3cnc[nH]3)c2)c1 [ESC1002038, N-[3-[1H-imidazol-5-ylmethyl(methyl)amino]phenyl]-N-isobutyl-3-methoxy-benzamide] | 5.70 | 92% | 0.8 | 105 | −2 | 5.7 |  |
| CC(C)CN(C(=O)c1ccc(Cl)cc1F)c1cccc(N(C)Cc2cnc[nH]2)c1 [ESC1002042, 4-chloro-2-fluoro-N-[3-[1H-imidazol-5-ylmethyl(methyl)amino]phenyl]-N-isobutyl-benzamide] | 6.50 | 98% | 0.8 | 101 | −6 | 6.5 |  |
| Cc1ccc(C(=O)Nc2cccc(N(C)Cc3cnc[nH]3)c2)cc1 [ESC1002054, N-[3-[1H-imidazol-5-ylmethyl(methyl)amino]phenyl]-4-methyl-benzamide] | < 4.70 | 3% |  |  |  |  |  |
| CN(Cc1cncn1C(=O)OC(C)(C)C)c1cccc(NC(=O)c2ccccc2F)c1 [ESC1002055] | < 4.70 | 1% |  |  |  |  |  |
| CN(Cc1cnc[nH]1)c1cccc(NC(=O)c2ccccc2F)c1 [ESC1002056, 2-fluoro-N-[3-[1H-imidazol-5-ylmethyl(methyl)amino]phenyl]benzamide] | < 4.70 | 4% |  |  |  |  |  |
| CC(C)N(C(=O)c1ccccc1F)c1cccc(N(C)Cc2cnc[nH]2)c1 [ESC1002078, 2-fluoro-N-[3-[1H-imidazol-5-ylmethyl(methyl)amino]phenyl]-N-isopropyl-benzamide] | 6.20 | 97% | 1 | 101 | −1 |  |  |
| Cc1ccc(C(=O)N(c2cccc(N(C)Cc3cnc[nH]3)c2)C(C)C)cc1 [ESC1002080, N-[3-[1H-imidazol-5-ylmethyl(methyl)amino]phenyl]-N-isopropyl-4-methyl-benzamide] | 6.00 | 96% | 0.9 | 102 | 0 |  |  |
| O=C(c1ccccc1F)N1CCCc2ccc(NCc3cnc[nH]3)cc21 [ESC1002081, (2-fluorophenyl)-[7-(1H-imidazol-5-ylmethylamino)-3,4-dihydro-2H-quinolin-1-yl]methanone] | < 4.70 | 0% |  |  |  |  | potency was abolished |
| CN(Cc1cnc[nH]1)c1ccc2c(c1)N(C(=O)c1ccccc1F)CCC2 [ESC1002083, (2-fluorophenyl)-[7-[1H-imidazol-5-ylmethyl(methyl)amino]-3,4-dihydro-2H-quinolin-1-yl]methanone] | < 4.70 | 2% |  |  |  |  |  |
| Cc1ccc(C(=O)N(CC2CC2)c2cccc(N(C)Cc3c[nH]cn3)c2)cc1 [ESC1002399, N-(cyclopropylmethyl)-N-[3-[1H-imidazol-4-ylmethyl(methyl)amino]phenyl]-4-methyl-benzamide] | 6.00 | 95% | 1.1 | 99 | 2 |  |  |
